The text below walks through data of patent US20040096855A1, “Genes” (priority 2001, published 2004).

The target of one experiment is cellular Ras. The experiment can be described thus: cell-based or functional assay.
The next experiment has as its system Colo 829. The experiment can be described thus: Inhibition of cell growth, sulphorhodamine B staining. Type of experiment: cell-based, human. Conditions: Colo 829 melanoma cells (BRAF V599E). The method, then:
(§1) Colo 829 cells are a melanoma cell line that harbours a V599E mutation in the BRAF gene and BE cells are a colorectal line that harbour a G463 mutation in the BRAF gene (Davies et al., 2002). As we have shown, both of these mutations are activating (Davies et al., 2002). Finally, we tested the effects of these inhibitors on DNA synthesis.
(§2) Cell lines were incubated in the presence of increasing levels of BAY 43-9006 and the levels of cell growth were determined by sulphorhodamine B staining. The IC50 values were determined by non-linear regression analysis and are indicated.

The subject of another experiment is BE. The description is as above. It counts as cell-based, human. The conditions noted are these: BE colorectal cells (BRAF G463 mutation). The method, then: as §1, §2
Experiment [1] concerns WM-266.4 cells. Description: DNA synthesis, [3H]-thymidine incorporation. It counts as cell-based, human. Conditions: 10 μM, 48 hours. The method, then:
FIG. 4. Inhibition of cell growth by pharmacological agents. WM-266.4 cells were incubated in the presence of U0126 (10 μM) or BAY 43-9006 (10 μM) or the vehicle control (DMSO). After 48 hours, DNA synthesis was determined by incubating the cells with [^3H]-thymidine and the levels of thymidine incorporated into the cellular DNA was determined.
as §1

Experiment [2] relates to ERK activity in WM266.4 cells. The experiment can be described thus: Active ERK levels by Western blot with ppERK antibody. Type of experiment: cell-based, human. Conditions: 10 μM compound. The protocol: WM266.4 or A375P cells were treated with 10 μM U0126, 10 μM BAY 43-9006 or DMSO as a control. Equivalent amounts of cellular proteins were resolved on SDS-gels and the levels of active ERK were determined using the ppERK antibody.
FIG. 6. Ablation of BRAF, but not CRAF blocks ERK activity in melanoma cells. WM-266.4 or Colo 829 cells were treated with a BRAF specific siRNA probe (BRAF), or the scrambled control (sBRAF), or a CRAF specific probe (CRAF), or its scrambled control (sCRAF), or oligofectamine (oligo) or left untreated (control) as indicated. The cells were incubated for the times indicated, and the Colo 829 cells were treated for 24hours. The levels of ERK activity in equivalent amounts of cell extract was determined by Western blotting with the ppERK antibody.
In order to validate BRAF as a target in cancer, it is first tested whether the growth of cells that express activated, mutant forms of BRAF required the RAF-MEK-ERK signaling pathway for growth. To this end, melanoma and colorectal cell lines that harbour mutations in the BRAF gene are treated with pharmacological agents that block signaling through this pathway. Two compounds are tested. One is the compound U0126, which is a MEK inhibitor and which therefore uncouples RAF-ERK signaling in cells (Sebolt-Leopold et al., 1999). BAY 43-9006 os also tested. This is an inhibitor of RAF proteins (Lyons et al., 2001). […]

The next experiment concerns WM266.4. The experiment can be described thus: Inhibition of cell growth, sulphorhodamine B staining. It counts as cell-based, human. The conditions noted are these: WM266.4 melanoma cells (BRAF V599D).
A further experiment relates to ERK (NCI-H2087 cells). The conditions noted are these: NCI-H2087, NSCLC cell line pair; Ras onc; B-Raf L596V.
Experiment [3] has as its system WM-266.4 cells. Description: Cell cycle analysis by FACS (propridium iodide). Type of experiment: cell-based, human. Conditions: 96 hours. The protocol:
FIG. 7. Ablation of BRAF, but not CRAF induces apoptosis in melanoma cells. WM-266.4 cells were treated with a BRAF specific siRNA probe (BRAF), or the scrambled control (sBRAF), or a CRAF specific siRNA probe (CRAF), or U0126, or […] (oligo) or left untreated (control) as indicated. The cells were incubated for 96 hours and the cell cycle profile was analysed by FACS, or PARP expression was examined by Western blotting.
Finally, we examined how BRAF ablation affected cell growth, examining the effects on apoptosis in WM-266.4 cells. For these studies, the cells were fixed in 70% ethanol, stained with propridium iodide and their cell cycle profiles were examined by fluorescent activated cell sorting (FACS). Using this analysis, the apoptotic cells appear in the sub-G1 peak. In these cells, spontaneous apoptosis is very low, with less than 1% of the cell appearing in the sub-G1 peak (FIG. 7, table 5). […] We also examined PARP cleavage, a marker of the induction of apoptosis.
WM-266.4 cells were treated with U0126, DMSO, siRNA to BRAF, siRNA to CRAF or the scrambled siRNA control. The cells were incubated for 96 hours and the cells were fixed and stained with propridium iodide for cell cycle analysis by FACS. The proportion of cells in each phase of the cell cycle is shown.

Another experiment relates to ERK (A2058 cells). The conditions noted are these: A2058, melanoma; B-Raf V599E.
The test system of the next experiment is ERK (SK-MEL-28 cells). The conditions noted are these: SK-MEL-28, melanoma; Ras b; B-Raf V599E.
The test system of another experiment is ERK (CHL cells). The conditions noted are these: melanoma, B-Raf wt.
The next experiment relates to Mawi. Conditions: colorectal, Ras wt, B-Raf V599E. The source says:
(§3) The second approach is to examine the effects of the compound U0126, an inhibitor of MEK1/2, the only known substrates for B-Raf.

A further experiment has as its system A2058. The conditions noted are these: A2058, melanoma; B-Raf V599E.
Text: as §3

A further experiment deals with WM-266-4/WM-115. The conditions noted are these: WM-266-4/WM-115, melanoma; Ras b; B-Raf V599D.
Text: as §3

The subject of a further experiment is SK-MEL-28. Conditions: SK-MEL-28, melanoma; Ras b; B-Raf V599E.
Text: as §3

A further experiment relates to colo741. The conditions noted are these: colo741, colorectal; B-Raf V599E.
Text: as §3

The test system of a further experiment is SW620. The conditions noted are these: SW620, colorectal; Ras onc; B-Raf wt.
Text: as §3

The next experiment deals with NCI-H2087. Conditions: NCI-H2087, NSCLC cell line pair; Ras onc; B-Raf L596V.
Text: as §3

The next experiment deals with CHL. The conditions noted are these: melanoma, B-Raf wt.
Text: as §3

A further experiment concerns ERK (Mawi cells). The conditions noted are these: colorectal, Ras wt, B-Raf V599E.
A further experiment concerns ERK (colo741 cells). The conditions noted are these: colo741, colorectal; B-Raf V599E.
Experiment [4] has as its system ERK (WM-266-4/WM-115 cells). Conditions: WM-266-4/WM-115, melanoma; Ras b; B-Raf V599D.

In the experiment with cellular Ras, monoclonal antibody Y13-259 had an inhibition of growth (percentage of cells that do not incorporate BrdU) after micro-injection of Y13-259; A2058, melanoma, Ras not given, B-Raf V599E of 0%; an inhibition of growth (percentage of cells that do not incorporate BrdU) after micro-injection of Y13-259; CaCO2, colorectal, Ras wt, B-Raf wt of 60%; an inhibition of growth (percentage of cells that do not incorporate BrdU) after micro-injection of Y13-259; DLD1, colorectal, Ras K13Asp/wt, B-Raf wt of 40%; an inhibition of growth (percentage of cells that do not incorporate BrdU) after micro-injection of Y13-259; HCT-116, colorectal, Ras K13 Asp, B-Raf wt of 95%. In the experiment with cellular Ras, this compound yielded an inhibition of growth (percentage of cells that do not incorporate BrdU) after micro-injection of Y13-259; HMV11-Riken, melanoma, Ras not given, B-Raf wt of 100%; an inhibition of growth (percentage of cells that do not incorporate BrdU) after micro-injection of Y13-259; HT29, colorectal, Ras wt, B-Raf V599E of 15%; an inhibition of growth (percentage of cells that do not incorporate BrdU) after micro-injection of Y13-259; JW2, colorectal, Ras K12, B-Raf wt of 79%; an inhibition of growth (percentage of cells that do not incorporate BrdU) after micro-injection of Y13-259; LS174T, colorectal, Ras K12Asp/wt, B-Raf wt of 84%. In the experiment with cellular Ras, this compound displayed an inhibition of growth (percentage of cells that do not incorporate BrdU) after micro-injection of Y13-259; LS411N, colorectal, Ras not given, B-Raf V599E (first value) of 0%; an inhibition of growth (percentage of cells that do not incorporate BrdU) after micro-injection of Y13-259; LS411N, colorectal, Ras not given, B-Raf V599E (second value) of 0%; an inhibition of growth (percentage of cells that do not incorporate BrdU) after micro-injection of Y13-259; Malme, melanoma, Ras not given, B-Raf V599E of 0%; an inhibition of growth (percentage of cells that do not incorporate BrdU) after micro-injection of Y13-259; Mawi, colorectal, Ras wt, B-Raf V599E of 5%. For the same compound, in the experiment with cellular Ras, the inhibition of growth (percentage of cells that do not incorporate BrdU) after micro-injection of Y13-259; NCI-H2087, NSCLC cell line pair, Ras onc, B-Raf L596V stood at 77%; the inhibition of growth (percentage of cells that do not incorporate BrdU) after micro-injection of Y13-259; SK-MEL-28, melanoma, Ras 'b', B-Raf V599E was determined as 4%; the inhibition of growth (percentage of cells that do not incorporate BrdU) after micro-injection of Y13-259; SK-Mel2, melanoma, Ras not given, B-Raf wt amounted to 70%; the inhibition of growth (percentage of cells that do not incorporate BrdU) after micro-injection of Y13-259; SW480, colorectal, Ras K12, B-Raf wt was determined as 57%. For the same compound, in the experiment with cellular Ras, the inhibition of growth (percentage of cells that do not incorporate BrdU) after micro-injection of Y13-259; SW620, colorectal, Ras onc, B-Raf wt was 92%; the inhibition of growth (percentage of cells that do not incorporate BrdU) after micro-injection of Y13-259; WM-266-4/WM-115, melanoma, Ras 'b', B-Raf V599D was 10%; the inhibition of growth (percentage of cells that do not incorporate BrdU) after micro-injection of Y13-259; colo205, colorectal, Ras wt, B-Raf V599E amounted to 3%; the inhibition of growth (percentage of cells that do not incorporate BrdU) after micro-injection of Y13-259; colo741, colorectal, Ras not given, B-Raf V599E came to 0%.
`CNC(=O)c1cc(Oc2ccc(NC(=O)Nc3ccc(Cl)c(C(F)(F)F)c3)cc2)ccn1` [BAY 43-9006]: the IC50 was 5.1 µM in the experiment with Colo 829, 5.4 µM in the experiment on BE, 6.1 µM in the experiment with WM266.4 and roughly 6.1 µM in the experiment with WM266.4 (listed as BAY 43-9002). For the same compound, the “IC50, inhibition of cell growth” value with Colo 829 and in the experiment on BE was “low micro-molar range” in each case. In addition, the “DNA synthesis ([3H]-thymidine incorporation)” value with WM-266.4 cells [1] is recorded as “strongly suppressed”. Further, the “ERK activity (ppERK Western blot)” value in experiment [2] is “strongly suppressed”.
As for `N#CC(=C(/N)Sc1ccccc1N)/C(C#N)=C(\N)Sc1ccccc1N` [U0126], the UO/ERK-inhib is given as greater than 90% in the experiment on ERK (NCI-H2087 cells); 80% with ERK (A2058 cells); greater than 90% with ERK (SK-MEL-28 cells); greater than 90% with ERK (CHL cells); greater than 90% in the experiment with ERK (Mawi cells); 90% in the experiment on ERK (colo741 cells). Moreover, in [4], the UO/ERK-inhib is greater than 90%. Moreover, the “Proportion of events, G1” value in the experiment with WM-266.4 cells [3] is 87.5%. Further, the “Proportion of events, G2/M” value in the experiment with WM-266.4 cells [3] turned out to be 7.8%. Besides, the “Proportion of events, S” value in the experiment on WM-266.4 cells [3] is recorded as 1.3%. In addition, the “Proportion of events, Sub-G1” value with WM-266.4 cells [3] (sub-G1 = apoptotic cells) is reported as roughly 3.5%. In addition, the “U0 inhibit S” value with Mawi was 80%; in the experiment with A2058, 68%; in the experiment on WM-266-4/WM-115 it was greater than 99%; with SK-MEL-28 it was 98%; with colo741 it was 76%; in the experiment on SW620, 92%. For the same compound, the “U0 inhibit S” value was found to be 56% with NCI-H2087 and 51% with CHL. In the experiment on WM-266.4 cells [1], the “DNA synthesis ([3H]-thymidine incorporation)” value was “strongly suppressed”. Besides, the “ERK activity (ppERK Western blot)” value in [2] is recorded as “strongly suppressed”.
